This note sets out measurements from ChEMBL document CHEMBL1130755, “Synthesis of a new class of camptothecin derivatives, the long-chain fatty acid esters of 10-hydroxycamptothecin, as a potent prodrug candidate, and their in vitro metabolic conversion by carboxylesterases” (Bioorg Med Chem Lett, 1998).

One series concerns the target T1, Carboxylesterase 1E (Rattus norvegicus, UniProt Q63108).
T1 sequence (Q63108 whole entry): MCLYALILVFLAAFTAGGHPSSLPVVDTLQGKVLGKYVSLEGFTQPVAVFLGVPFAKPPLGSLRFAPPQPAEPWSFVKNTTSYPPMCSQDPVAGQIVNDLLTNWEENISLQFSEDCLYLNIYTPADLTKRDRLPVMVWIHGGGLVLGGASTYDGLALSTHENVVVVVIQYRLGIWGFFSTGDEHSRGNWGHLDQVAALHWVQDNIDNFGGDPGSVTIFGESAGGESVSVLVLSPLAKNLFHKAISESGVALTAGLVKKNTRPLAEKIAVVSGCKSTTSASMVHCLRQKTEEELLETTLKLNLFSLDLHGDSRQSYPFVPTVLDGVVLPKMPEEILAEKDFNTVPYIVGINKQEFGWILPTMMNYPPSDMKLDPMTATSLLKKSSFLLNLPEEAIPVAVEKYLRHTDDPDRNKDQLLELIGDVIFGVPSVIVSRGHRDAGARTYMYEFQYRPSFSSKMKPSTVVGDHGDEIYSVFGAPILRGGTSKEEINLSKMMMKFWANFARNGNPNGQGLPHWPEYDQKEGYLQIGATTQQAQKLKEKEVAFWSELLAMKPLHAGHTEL
The experiment in a line: Specific activity (hydrolysis) by purified carboxylesterase isozyme RH1 against microsomes in rat liver.

The target in the next series is T2, Liver carboxylesterase 1 (Homo sapiens, UniProt P23141).
T2 sequence (P23141 whole entry): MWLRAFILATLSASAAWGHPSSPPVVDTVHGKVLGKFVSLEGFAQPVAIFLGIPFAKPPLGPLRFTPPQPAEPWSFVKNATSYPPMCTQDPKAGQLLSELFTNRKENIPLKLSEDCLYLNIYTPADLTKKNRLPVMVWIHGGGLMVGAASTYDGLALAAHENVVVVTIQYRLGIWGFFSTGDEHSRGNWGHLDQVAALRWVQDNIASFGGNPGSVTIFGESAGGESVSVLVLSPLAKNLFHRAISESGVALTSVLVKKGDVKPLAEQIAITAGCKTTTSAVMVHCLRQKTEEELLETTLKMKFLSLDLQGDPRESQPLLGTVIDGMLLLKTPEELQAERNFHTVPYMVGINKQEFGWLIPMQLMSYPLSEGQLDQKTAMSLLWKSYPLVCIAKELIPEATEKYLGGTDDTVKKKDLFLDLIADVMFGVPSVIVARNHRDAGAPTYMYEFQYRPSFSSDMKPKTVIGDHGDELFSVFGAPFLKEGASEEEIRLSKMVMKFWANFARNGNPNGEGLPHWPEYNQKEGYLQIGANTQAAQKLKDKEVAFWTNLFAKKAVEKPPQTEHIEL
Description: Specific activity (hydrolysis) by purified carboxylesterase isozyme HU1 against microsomes in human liver.

For series [1], the system named is Liver carboxylesterase 1 (Sus scrofa). Description: Specific activity (hydrolysis) by purified carboxylesterase isozyme P1 against microsomes in pig liver.

`CCCCCCCCCCCCCCCCCC(=O)Oc1ccc2nc3c(cc2c1)Cn1c-3cc2c(c1=O)COC(=O)[C@]2(O)CC`: the Activity on Carboxylesterase 1E worked out at 0.698 nmol/min/mg; at Liver carboxylesterase 1, 1.27 nmol/min/mg; in series [1] it was 3.02 nM/mg/min.
For `CCCCCCCCCCCC(=O)Oc1ccc2nc3c(cc2c1)Cn1c-3cc2c(c1=O)COC(=O)[C@]2(O)CC`, in that order: 19.1 nmol/min/mg, 15.3 nmol/min/mg and 42.1 nM/mg/min.
Compound `CCc1c2c(nc3ccc(OC(=O)N4CCC(N5CCCCC5)CC4)cc13)-c1cc3c(c(=O)n1C2)COC(=O)[C@]3(O)CC` [IRINOTECAN] registered an Activity on Carboxylesterase 1E of 0.259 nmol/min/mg.
In the case of `CCCCCCCCCCCCCCCC(=O)Oc1ccc2nc3c(cc2c1)Cn1c-3cc2c(c1=O)COC(=O)[C@]2(O)CC`, the Activity was found to be 2.33 nmol/min/mg on Carboxylesterase 1E, 1.58 nmol/min/mg at Liver carboxylesterase 1 and 9.13 nM/mg/min in series [1].
For `CCCCCCCCCC(=O)Oc1ccc2nc3c(cc2c1)Cn1c-3cc2c(c1=O)COC(=O)[C@]2(O)CC`, in that order: 17.4 nmol/min/mg, 27.9 nmol/min/mg and 37.4 nM/mg/min.
For `CCCCCCCCCCCCCCCCCCCC(=O)Oc1ccc2nc3c(cc2c1)Cn1c-3cc2c(c1=O)COC(=O)[C@]2(O)CC`, in that order: 0.183 nmol/min/mg, 1.07 nmol/min/mg and 0.854 nM/mg/min.
